Results on four molecules are retold here after publication PMC7198601, “Side chain effect in the modulation of αvβ3/α5β1 integrin activity via clickable isoxazoline-RGD-mimetics: development of molecular delivery systems” (Scientific Reports, 2020).

One data set relates to selected integrins. Description: Effect of the aromatised degradation product on the activity of selected integrins. Here is the method:
(§1) LC-MS injections were performed after 30 min from the preparation of the samples and then after each 1.5 hours, following the experiments for 14 h (Fig. 4). […] As a consequence of the spontaneous aromatization of A, also an increasing amount of B was observed after a short period. The aromatised form B was tested to evaluate its effect on the activity of selected integrins but, as consequence of the absence of a crucial pharmacophore, it was not active. This behaviour doesn’t represent a big issue since strong basic conditions are quite unusual in physiological environment. In fact under stress conditions with a large excess of base, the decomposition of 17b to A occurred in few minutes.

Data set [1] deals with α5β1 integrin-mediated phosphorylation of ERK1/2. Kind of data set: α5β1 integrin-mediated ERK1/2 phosphorylation in K562 cells (Western blot). In kind it is cell-based, human. The note with it: K562 cells preincubated with compound 10^−7–10^−9 M, then plated on fibronectin. Here is the method:
The mechanism by which components of extracellular matrix generate intracellular signalling through integrins requires indeed an increased phosphorylation of cytoplasmatic second messengers. Phosphorylation of ERK1/2 plays a central role in fibronectin-mediated survival signalling through integrins: in fact, cell adhesion activates ERK1/2 by binding of α5β1 integrins at the cell surface to extracellular matrix proteins such as fibronectin. The experiment was performed by serum-starving K562 cells in RPMI-1640 containing 1% FBS for 16 h; thereafter, they were preincubated with compound 17b, 24 (10^−7–10^−9 M) or the vehicle for 60 minutes and then plated for 60 minutes on fibronectin.
Figure 2 (a) Cropped blots related to the effect of compounds 17b and 24 on α5β1 integrin-mediated phosphorylation of ERK1/2 in K562 cells. Cells were serum-starved in RPMI-1640 containing 1% FBS for 16 h; then cells were preincubated with different concentrations of the antagonist 17b (10^−7–10^−9 M) or its vehicle for 1 h in suspension and then were allowed to adhere for 1 h on fibronectin (FN). […] Thereafter cells were lysed and lysates were analysed in Western blot using an antibody directed against phosphorylated ERK1/2 (pERK1/2) or total ERK1/2 (totERK1/2). […]
K562 cells were incubated in RPMI-1640 with 1% FBS for 16 h. […] Digital images were acquired and analyzed following previously reported methods.

The target in the next data set is αvβ3 integrin (Homo sapiens, UniProt P05106+P06756). Description: Cell adhesion assay: SK-MEL-24 cells to immobilized fibronectin (αvβ3 integrin-mediated).
The nature of data set [2]: Stability in bovine serum (LC-MS). It counts as in vitro ADME. Here is the method:
as §1
(§2) Figure 4 Stability of 17b in neutral, basic, acidic and physiological conditions and its possible degradation pathway. Conditions: 17b (0.1 mmol) in 300 µl of solvent (water or bovine serum). 5 eq of LiOH·H2O or HCl 1 M were added.

For data set [3], the target named is T1, α5β1 integrin (Homo sapiens, UniProt P05556+P08648). Kind of data set: Cell adhesion assay: K562 cells to immobilized fibronectin (α5β1 integrin-mediated).
Procedure: (§8) The ability of the synthesized racemic ligands to inhibit the adhesion of K562 cells (human erythroleukemic cells, expressing α5β1 integrin) or SK-MEL-24 cells (human malignant melanoma cells, expressing αvβ3 integrin) to immobilized fibronectin was evaluated[29]. […] In these experiments, the cells were seeded onto plates coated with fibronectin and allowed to adhere before quantitation of the number of adherent cells, in presence of increasing concentrations of the compounds.
(§9) SK-MEL-24 (American Tissue Culture Collection, ATCC, Rockville, MD) were routinely grown in minimum essential medium (MEM, Cambrex, Walkersville, MD) supplemented with 10% fetal bovine serum (FBS), nonessential amino acids, and sodium pyruvate. K-562 (ATCC, Rockville, MD) were maintained as a stationary suspension culture in RPMI-1640 and L-glutamine with 10% FBS (Invitrogen (Carlsbad, CA). Cells were kept at 37 °C in a 5% CO2 humidified atmosphere. Forty hours before experiments, K-562 were treated with 25 ng/mL PMA (Sigma-Aldrich SRL, Milan, Italy) to induce differentiation and to increase expression of cell surface antigens[50].
(§10) Plates (96 wells) (Corning Costar, Celbio, Milan,Italy) were coated by passive adsorption with fibronectin (10 µg/mL) or poly-L-lysine (0.002%) (Sigma-Aldrich SRL) overnight at 4 °C. Cells were counted with a haemocytometer and pre-incubated with different concentrations of each compound or with the vehicle (methanol) for 30 min at room temperature to reach a ligand-receptor equilibrium. Stock solutions (10^–2 M) of the assayed compounds were prepared in phosphate-buffered saline (PBS). […] This product is a chromogenic substrate for β-N-acetylglucosaminidase that is transformed in 4-nitrophenol whose absorbance can be measured at 405 nm. As previously described[51], there is a linear correlation between absorbance and enzymatic activity. Therefore, it is possible to identify the number of adherent cells among treated wells, interpolating the absorbance values of unknowns in a calibration curve. The reaction was blocked by addition of 100 µL of a stopping solution [50 µM glycine and 5 µM EDTA (pH 10.4)], and the plates were read in an EnSpire Multimode Plate Reader (PerkinElmer, Waltham, MA, USA). Experiments were carried out in quadruplicate and repeated at least three times. Data analysis and IC50/EC50 values were calculated using Graph-Pad Prism 5.0 (GraphPad Software, San Diego, CA).
Data set [4] can be described thus: Stability in water at neutral, basic and acidic pH (LC-MS). It counts as physicochemical. The note with it: for loss of product: water, after several hours. Here is the method: as §1, §2
For data set [5], the target named is T1, α5β1 integrin. Kind of data set: α5β1 integrin internalization by confocal microscopy in HEK293 + α5-EGFP cells. In kind it is cell-based. The note with it: compound 1 µM pre-incubated before fibronectin 10 µg/mL. The text has this: Integrin trafficking is an important mechanism employed by cells to regulate integrin–extracellular matrix interactions, and thus cellular signalling, during processes such as cell migration and invasion. α5β1 integrin is internalized, trafficked to recycling endosomes and then recycled to the plasma membrane[43],[44]. Membrane trafficking pathways influence α5β1’s ability to promote invasion and metastasis[45],[46]. […]
HEK293 cells (not expressing α5 but endogenously expressing β1 integrin[47],[48] were plated in 6 well plates and at 50–60% confluence were transiently transfected with α5-EGFP plasmid using Lipofectamine2000 transfection reagent (LifeTechnologies). After 48 h from transfection, HEK293 + α5-EGFP cells were assessed to verify integrins expression by flow cytometry (data not shown). α5-EGFP integrin plasmid was a kind gift from Michael Davidson (Addgene plasmid #56423). HEK293 + α5-EGFP cells were treated at 4 °C with fibronectin (10 µg/ml) or the agonist 24 (1 µM) in MEM for 1 hour. Cells exposed to the antagonist 17b (1 µM), before the addition of fibronectin, were pre-incubated with the compound for 20 minutes at 4 °C. […]
(§3) Specimens were embedded in Mowiol and analyzed using a Nikon C1s confocal laser-scanning microscope, equipped with a Nikon PlanApo 60×, 1.4-NA oil immersion lens. […]

The next data set has as its system HEK293 cells. Kind of data set: Confocal microscopy of FITC-conjugate internalization in HEK293 cells not expressing α5. In kind it is cell-based, human. The note with it: HEK293 cells that do not express α5 integrin, 0.1–1 μM. As for the experimental part:
(§4) In order to visualize the localization of isoxazolines inside the cells and to explore the possibility to use them as shuttles for selective delivery of therapeutic payloads and diagnostics, compound 31 was synthesized conjugating 17b with FITC, as described above. […] In addition, the internalization of compound 31 was concentration-dependent: at a higher concentration (1 μM) it accumulated inside the cells in a greater extent.
(§5) Figure 5 Confocal microscopy images of HEK293 or HEK293 + α5, HEK293 + αvβ3 and K562 cells treated with compound 31 (Cpd 31). […] In the left column of each panel green (FITC) fluorescence was shown, whereas in right one green and blue (DAPI) signals were merged. […] Scale bar: 30 µm. d) Compound 31 internalization was evaluated according to green fluorescence intensity in the cells and is reported in the graph. […]
as §3
(§6) For internalization analysis of ligand 31, the mean fluorescence intensity was related to the background; the relative fluorescence intensity is reported in the graph in Fig. 5.

Another data set has as its system HEK293 + α5 cells. Kind of data set: Confocal microscopy of FITC-conjugate internalization in HEK293 + α5 cells. The following applies: 0.1–1 μM. In kind it is cell-based, human. Here is the method:
as §4, §5, §3, §6

The test system of a further data set is HEK293 + αvβ3 cells. Description: Confocal microscopy of FITC-conjugate internalization in HEK293 + αvβ3 cells. In kind it is cell-based, human. The following applies: HEK293 + αvβ3 cells not expressing α5β1, 0.1–1 μM. As for the experimental part: (§7) Figure 5 Confocal microscopy images of HEK293 or HEK293 + α5, HEK293 + αvβ3 and K562 cells treated with compound 31 (Cpd 31). Cells were exposed to compound 31 (0.1–1 μM) or its vehicle for 60 minutes at 4 °C and thereafter cells were moved to 37 °C for 15 minutes to promote integrin internalization and fixed as described in Methods. a) Compound 31, conjugated with FITC was able to enter the cells in α5 integrin-dependent manner: it was internalized in HEK293 + α5 but not in HEK293 cells. Right Panels: HEK293 cells not expressing α5 integrin subunit. Left Panels: HEK293 + α5. b) Concentration-dependent internalization of compound 31 was observed also in K562 cancer cells, endogenously expressing α5β1 integrin. […] In the left column of each panel green (FITC) fluorescence was shown, whereas in right one green and blue (DAPI) signals were merged. Nuclei were counterstained with DAPI. Scale bar: 30 µm. d) Compound 31 internalization was evaluated according to green fluorescence intensity in the cells and is reported in the graph. […]
as §3, §6

For another data set, the system named is K562 cells. Kind of data set: Confocal microscopy of FITC-conjugate internalization in K562 cells. It counts as cell-based, human. Here is the method: as §7, §3, §6
Where [6] appears, read: K562 cell adhesion to fibronectin.

T1 sequence (P08648 42-894 limits assumed): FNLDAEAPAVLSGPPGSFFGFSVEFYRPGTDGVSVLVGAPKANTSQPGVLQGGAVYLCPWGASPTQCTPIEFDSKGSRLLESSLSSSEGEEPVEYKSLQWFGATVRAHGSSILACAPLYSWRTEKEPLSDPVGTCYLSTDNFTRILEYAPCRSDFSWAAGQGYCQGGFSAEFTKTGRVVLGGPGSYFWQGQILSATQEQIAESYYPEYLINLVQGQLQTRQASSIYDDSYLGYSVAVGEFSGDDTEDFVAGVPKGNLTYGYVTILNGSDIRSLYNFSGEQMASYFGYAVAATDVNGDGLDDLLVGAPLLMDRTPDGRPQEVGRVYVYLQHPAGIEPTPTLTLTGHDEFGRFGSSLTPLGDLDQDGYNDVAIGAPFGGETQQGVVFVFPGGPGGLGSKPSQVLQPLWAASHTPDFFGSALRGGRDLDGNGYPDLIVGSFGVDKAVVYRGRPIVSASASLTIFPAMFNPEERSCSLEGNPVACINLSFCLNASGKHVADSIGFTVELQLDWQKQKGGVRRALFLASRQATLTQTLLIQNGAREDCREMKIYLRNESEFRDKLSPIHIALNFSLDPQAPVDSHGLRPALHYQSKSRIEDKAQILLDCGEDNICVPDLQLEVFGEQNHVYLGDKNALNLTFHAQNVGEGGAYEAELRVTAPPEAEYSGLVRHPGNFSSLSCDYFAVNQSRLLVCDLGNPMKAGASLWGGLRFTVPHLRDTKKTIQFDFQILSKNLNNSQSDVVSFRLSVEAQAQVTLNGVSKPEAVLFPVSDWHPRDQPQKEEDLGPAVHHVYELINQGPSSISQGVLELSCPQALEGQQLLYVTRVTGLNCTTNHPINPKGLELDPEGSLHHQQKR
T1 sequence (P08648 895-1049 partner limits assumed): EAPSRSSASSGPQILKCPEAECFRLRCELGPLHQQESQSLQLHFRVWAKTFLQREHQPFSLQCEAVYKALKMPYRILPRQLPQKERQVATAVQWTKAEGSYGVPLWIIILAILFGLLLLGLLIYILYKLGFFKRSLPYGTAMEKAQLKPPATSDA
T1 sequence (P05556 21-798): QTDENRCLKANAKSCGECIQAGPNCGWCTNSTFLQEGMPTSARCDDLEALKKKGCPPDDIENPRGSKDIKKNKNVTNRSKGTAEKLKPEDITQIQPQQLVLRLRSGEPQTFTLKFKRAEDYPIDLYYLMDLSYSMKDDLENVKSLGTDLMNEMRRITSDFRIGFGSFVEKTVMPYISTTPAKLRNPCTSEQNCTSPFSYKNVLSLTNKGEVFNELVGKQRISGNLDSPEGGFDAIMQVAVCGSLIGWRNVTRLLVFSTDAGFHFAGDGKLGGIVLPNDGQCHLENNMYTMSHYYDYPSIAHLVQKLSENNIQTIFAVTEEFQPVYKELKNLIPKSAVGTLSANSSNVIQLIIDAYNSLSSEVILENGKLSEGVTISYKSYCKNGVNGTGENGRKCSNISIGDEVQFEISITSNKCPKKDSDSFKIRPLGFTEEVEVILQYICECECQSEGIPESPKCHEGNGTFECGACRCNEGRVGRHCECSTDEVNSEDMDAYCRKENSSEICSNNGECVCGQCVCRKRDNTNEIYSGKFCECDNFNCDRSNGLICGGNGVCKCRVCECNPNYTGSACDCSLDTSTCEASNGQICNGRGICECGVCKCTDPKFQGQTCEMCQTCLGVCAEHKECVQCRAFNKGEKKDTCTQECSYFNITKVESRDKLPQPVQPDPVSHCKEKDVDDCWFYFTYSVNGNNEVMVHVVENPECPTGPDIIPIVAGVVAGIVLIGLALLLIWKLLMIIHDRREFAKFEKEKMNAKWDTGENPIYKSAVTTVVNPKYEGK
αvβ3 integrin, sequence (P06756 31-889 limits assumed): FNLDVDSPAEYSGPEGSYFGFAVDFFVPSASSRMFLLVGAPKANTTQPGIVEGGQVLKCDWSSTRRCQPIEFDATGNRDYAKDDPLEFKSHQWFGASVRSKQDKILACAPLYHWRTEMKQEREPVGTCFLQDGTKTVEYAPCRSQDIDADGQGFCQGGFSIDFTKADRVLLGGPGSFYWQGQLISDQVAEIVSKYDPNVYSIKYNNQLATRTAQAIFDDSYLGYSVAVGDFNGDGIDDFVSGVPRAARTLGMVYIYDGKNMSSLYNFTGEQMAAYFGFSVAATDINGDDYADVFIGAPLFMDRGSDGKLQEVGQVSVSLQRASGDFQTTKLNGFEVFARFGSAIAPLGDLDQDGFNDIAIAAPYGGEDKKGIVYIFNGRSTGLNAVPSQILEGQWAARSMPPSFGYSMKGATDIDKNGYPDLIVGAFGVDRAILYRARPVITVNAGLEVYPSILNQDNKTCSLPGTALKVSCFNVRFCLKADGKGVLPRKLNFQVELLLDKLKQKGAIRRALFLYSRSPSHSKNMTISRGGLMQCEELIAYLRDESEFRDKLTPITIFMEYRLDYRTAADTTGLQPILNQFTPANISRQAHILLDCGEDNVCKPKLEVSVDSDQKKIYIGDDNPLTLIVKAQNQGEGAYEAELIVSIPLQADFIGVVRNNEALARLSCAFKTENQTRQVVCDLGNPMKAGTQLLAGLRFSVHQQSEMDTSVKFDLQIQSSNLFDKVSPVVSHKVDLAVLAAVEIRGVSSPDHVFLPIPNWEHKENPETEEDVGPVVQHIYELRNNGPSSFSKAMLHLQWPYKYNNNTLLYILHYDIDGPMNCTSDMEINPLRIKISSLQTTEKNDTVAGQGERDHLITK
αvβ3 integrin, sequence (P06756 891-1048 partner limits assumed): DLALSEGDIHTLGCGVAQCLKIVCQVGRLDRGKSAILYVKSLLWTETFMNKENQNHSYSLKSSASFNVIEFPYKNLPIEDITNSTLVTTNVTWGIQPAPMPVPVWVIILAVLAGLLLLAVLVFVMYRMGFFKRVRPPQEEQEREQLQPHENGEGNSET
αvβ3 integrin, sequence (P05106 27-788): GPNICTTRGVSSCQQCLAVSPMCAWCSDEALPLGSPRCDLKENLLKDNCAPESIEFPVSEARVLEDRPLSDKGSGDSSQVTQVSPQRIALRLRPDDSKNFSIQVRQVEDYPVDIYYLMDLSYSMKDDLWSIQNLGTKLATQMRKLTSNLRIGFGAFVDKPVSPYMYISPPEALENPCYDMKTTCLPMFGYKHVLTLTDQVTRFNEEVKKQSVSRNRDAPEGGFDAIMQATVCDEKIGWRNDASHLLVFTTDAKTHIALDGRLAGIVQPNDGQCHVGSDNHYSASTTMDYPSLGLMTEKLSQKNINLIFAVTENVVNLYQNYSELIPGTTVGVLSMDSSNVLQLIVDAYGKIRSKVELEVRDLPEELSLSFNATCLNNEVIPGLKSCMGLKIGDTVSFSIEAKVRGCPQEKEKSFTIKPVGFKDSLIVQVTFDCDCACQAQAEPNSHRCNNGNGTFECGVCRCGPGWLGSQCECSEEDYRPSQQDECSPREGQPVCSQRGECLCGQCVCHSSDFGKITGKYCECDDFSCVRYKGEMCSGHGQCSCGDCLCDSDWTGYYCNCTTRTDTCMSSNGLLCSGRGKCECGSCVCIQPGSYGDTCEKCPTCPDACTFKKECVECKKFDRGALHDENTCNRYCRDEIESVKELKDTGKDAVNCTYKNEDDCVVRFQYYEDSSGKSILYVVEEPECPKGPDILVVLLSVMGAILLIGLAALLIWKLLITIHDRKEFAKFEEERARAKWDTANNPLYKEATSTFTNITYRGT
Procedure for αvβ3 integrin: as §8, §9, §10

As for `Cc1onc(CCCc2cn(CCCNC(=O)OC(C)(C)C)nn2)c1C(=O)NCc1ccc(N)cc1` [B], in the data set on selected integrins, the “effect on the activity of selected integrins” value was “not active”.

As for `CC1=C(C(=O)NCc2ccc(N)cc2)C(CCCc2cn(CCCNC(=O)OC(C)(C)C)nn2)N(C(=O)CC(=O)O)O1` (stereo not drawn) [Compound 17b], the “fibronectin-induced ERK1/2 phosphorylation levels” value in [1] was “significant concentration-dependent reduction”. The IC50 (commonly the concentration at which inhibition is half-maximal) on αvβ3 integrin is greater than 1000 µM; on α5β1 integrin [3], 0.0027 ± 0.0004 µM. Further, the “stability in bovine serum” value in data set [2] is given as “no significant degradation”. Moreover, the “α5β1 behaviour (agonist/antagonist)” value at α5β1 integrin [3] (setting [6]) is “antagonist”. The loss of product in data set [4] (acidic treatment (pH=3, HCl)) was 5%; in data set [4] (neutral conditions (pH=7)) it was 5%. For the same molecule, the “decomposition to A” value in data set [4] (stress conditions with a large excess of base) is “few minutes”. Besides, the “effect on fibronectin-induced α5β1 integrin internalization” value at α5β1 integrin [5] is “prevented integrin internalization”.

On to `CC1=C(C(=O)NCc2ccc(N)cc2)C(CCCc2cn(CCCNC(=S)Nc3ccc(-c4c5ccc(=O)cc-5oc5cc(O)ccc45)c(C(=O)O)c3)nn2)N(C(=O)CC(=O)O)O1` (stereo not drawn) [Compound 31], for which the internalization result with HEK293 cells was “not able to enter”; in the data set on HEK293 + αvβ3 cells, “not able to be internalized”; with K562 cells (0.1–1 μM), “internalized in K562 cells in a concentration-dependent way”. In the data set on HEK293 + α5 cells, the “intracellular localization / internalization” value is given as “localized in the cell cytoplasm”. The molecule also gave an IC50 on α5β1 integrin [3] of 0.13 ± 0.01 µM. In addition, on α5β1 integrin [3] (setting [6]), the “α5β1 behaviour (agonist/antagonist)” value is listed as “antagonist”. Also, the “α5β1 IC50/EC50 (IC50 for antagonists)” value on α5β1 integrin [3] (K562 cell adhesion to fibronectin, antagonists, also >1000 cells with behaviour not given, mean ± SD) worked out at 0.13 ± 0.01 µM.

On to `CC[C@@]1([C@@H]2O[C@@H]([C@H]3O[C@@](O)(CO)[C@H](C)C[C@@H]3C)C[C@@H]2C)CC[C@H]([C@]2(C)CC[C@]3(C[C@H](O)[C@@H](C)[C@@H]([C@@H](C)[C@@H](OC)[C@H](C)C(=O)O)O3)O2)O1` [monensin, reference compound], for which the “effect on compound 31 internalization” value in the data set with K562 cells (monensin 2 µM for 2 h) was “significantly inhibited”.
